US20250188057A1, “NON-AROMATIC CYCLIC-PYRIMIDINE ANALOGS AS GLUCOSYLCERAMIDE SYNTHASE INHIBITORS” (Merck Sharp & Dohme LLC, priority 2022, published 2025)

Experiments:
[1] = target: glucosylceramide synthase (GCS) (Homo sapiens (Human), UniProt Q16739); experiment: UDP-Glo glucosylceramide synthase biochemical assay; details: endogenous GCS in Golgi preparations isolated from human A375 malignant melanoma skin cells; UDP detection by luminescence
How it was run: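 Endogenous GCS in A375 Golgi preparations (1.5 μg total protein) was preincubated with compound for 30 min at RT, then reacted with UDP-glucose and ceramide for 20 h at RT. UDP was detected by luciferase luminescence, normalized to DMSO and reference-inhibitor controls, with EC50 and % Emax from a 4PL fit.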

[2] = tested on: GD and PD patient-derived induced pluripotent stem cell (iPSC) neurons; details: Zunke, F. et al., Neuron 2018; cited from earlier work

glucosylceramide synthase (GCS), sequence (Q16739 whole entry): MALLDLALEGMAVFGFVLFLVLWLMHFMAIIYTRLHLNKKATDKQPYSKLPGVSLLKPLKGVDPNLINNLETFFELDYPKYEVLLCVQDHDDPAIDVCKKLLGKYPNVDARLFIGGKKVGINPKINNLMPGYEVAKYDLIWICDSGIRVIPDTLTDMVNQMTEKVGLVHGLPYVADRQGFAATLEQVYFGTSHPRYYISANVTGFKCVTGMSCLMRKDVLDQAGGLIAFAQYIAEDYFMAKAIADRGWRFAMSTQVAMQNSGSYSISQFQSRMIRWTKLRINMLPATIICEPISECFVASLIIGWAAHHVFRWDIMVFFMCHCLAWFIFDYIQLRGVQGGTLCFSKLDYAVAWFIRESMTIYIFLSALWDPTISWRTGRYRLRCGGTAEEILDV

Work on `N#Cc1cnc(C2CC2)nc1NC1CCCc2sc(C3CCCC3)nc21` (stereo not drawn) [Compound 95, 4-((2-cyclopentyl-4,5,6,7-tetrahydrobenzo[d]thiazol-4-yl)amino)-2-cyclopropylpyrimidine-5-carbonitrile] yielded an IC50 [1] of 19 nM.

`N#Cc1cnc(C2CC2)nc1NC1CCCc2sc(C3CCC3)nc21` (stereo not drawn) [Compound 96, 4-((2-cyclobutyl-4,5,67-tetrahydrobenzo[d]thiazol-4-yl)amino)-2-cyclopropylpyrimidine-5-carbonitrile] showed an IC50 [1] of 46 nM.

`N#Cc1cnc(C2CC2)nc1OC1CCc2ccc(OC(F)(F)F)cc21` (stereo not drawn) [Compound 97, 2-cyclopropyl-4-((6-(trifluoromethoxy)-2,3-dihydro-1H-inden-1-yl)oxy)pyrimidine-5-carbonitrile] gave an IC50 [1] of 18 nM.

For `N#Cc1cnc(C2CC2)nc1OC1CCc2ccc(C(F)(F)F)cc21` (stereo not drawn) [Compound 98, 2-cyclopropyl-4-((6-(trifluoromethyl)-2,3-dihydro-1H-inden-1-yl)oxy)pyrimidine-5-carbonitrile], the IC50 [1] was 23 nM.

With `N#Cc1cnc(C2CC2)nc1OCC1CCN(c2ccccc2)C1` (stereo not drawn) [Compound 100, 2-cyclopropyl-4-((1-phenylpyrrolidin-3-yl)methoxy)pyrimidine-5-carbonitrile] the IC50 [1] was 160 nM.

`N#Cc1cnc(C2CC2)nc1OCC1CCC(c2ccccc2)O1` (stereo not drawn) [Compound 102, 2-cyclopropyl-4-((5-phenyltetrahydrofuran-2-yl)methoxy)pyrimidin-5-carbonitrile] gave an IC50 [1] of 195 nM.

For `N#Cc1cnc(C2CC2)nc1OCC12CC(COCc3ccccc3)(CO1)C2` [Compound 103, 4-((4-((benzyloxy)methyl)-2-oxabicyclo[2.1.1]hexan-1-yl)methoxy)-2-cyclopropylpyrimidine-5-carbonitrile], the IC50 [1] was 2080 nM.

`N#Cc1cnc(C2CC2)nc1OCC1CCCN1Cc1ccc(F)cc1` (stereo not drawn) [Compound 104, 2-cyclopropyl-4-((1-(4-fluorobenzyl)pyrrolidin-2-yl)methoxy)pyrimidine-5-carbonitrile] showed an IC50 [1] of 1870 nM.

For `COc1ccc(N2CCC(Oc3nc(C4CC4)ncc3C#N)C2)cc1` (stereo not drawn) [Compound 105, 2-cyclopropyl-4-((1-(4-methoxyphenyl)pyrrolidin-3-yl)oxy)pyrimidine-5-carbonitrile], the IC50 [1] was 321 nM.

Work on `N#Cc1cnc(C2CC2)nc1OCC1CCCN1Cc1ccccc1Cl` (stereo not drawn) [Compound 106, 4-((1-(2-chlorobenzyl)pyrrolidin-2-yl)methoxy)-2-cyclopropylpyrimidine-5-carbonitrile] yielded an IC50 [1] of 1330 nM.

For `COc1ccc(N2CCC(COc3nc(C4CC4)ncc3C#N)C2)cc1` (stereo not drawn) [Compound 107, 2-cyclopropyl-4-((1-(4-methoxyphenyl)pyrrolidin-3-yl)methoxy)pyrimidine-5-carbonitrile], the IC50 [1] was 67 nM.

In the case of `N#Cc1cnc(C2CC2)nc1OC[C@H]1CCN(C2CCC(F)(F)CC2)C1` [Compound 108, (S)-2-cyclopropyl-4-((1-(4,4-difluorocyclohexyl)pyrrolidin-3-yl)methoxy)pyrimidine-5-carbonitrile], the IC50 [1] is reported as 3970 nM.

`Cc1nc2c(s1)CCCC2Nc1nc(C2CC2)nc(Cl)c1CO` (stereo not drawn) [Compound 109, (4-chloro-2-cyclopropyl-6-((2-methyl-4,5,6,7-tetrahydrobenzo[d]thiazol-4-yl)amino)pyrimidin-5-yl)methanol] gave an IC50 [1] of 593 nM.

In the case of `OCc1c(Cl)nc(C2CC2)nc1N1Cc2nc(Br)sc2C1` [Compound 111, (4-(2-bromo-4,6-dihydro-5H-pyrrolo[3,4-d]thiazol-5-yl)-6-chloro-2-cyclopropylpyrimidin-5-yl)methanol], the IC50 [1] is reported as 3260 nM.

`OCc1c(Cl)nc(C2CC2)nc1N1Cc2nc(-c3ccccc3)oc2C1` [Compound 112, (4-chloro-2-cyclopropyl-6-(2-phenyl-4,6-dihydro-5H-pyrrolo[3,4-d]oxazol-5-yl)pyrimidin-5-yl)methanol] gave an IC50 [1] of 2330 nM.

Molecule `OCc1c(Cl)nc(C2CC2)nc1N1CCC[C@@H]1c1ncc(-c2ccccc2)s1` [Compound 113, (R)-(4-chloro-2-cyclopropyl-6-(2-(5-phenylthiazol-2-yl)pyrrolidin-1-yl)pyrimidin-5-yl)methanol] has an IC50 [1] of 750 nM.

Work on `OCc1c(Cl)nc(C2CC2)nc1N1CCc2nc(C3CC3)sc2C1` [Compound 114, (4-chloro-2-cyclopropyl-6-(2-cyclopropyl-6,7-dihydrothiazolo[5,4-c]pyridin-5(4H)-yl)pyrimidin-5-yl)methanol] yielded an IC50 [1] of 3330 nM.

In the case of `OCc1c(Cl)nc(C2CC2)nc1NC1CCCc2sc(C3CCCCC3)nc21` (stereo not drawn) [Compound 115, (4-chloro-6-((2-cyclohexyl-4,5,6,7-tetrahydrobenzo[d]thiazol-4-yl)amino)-2-cyclopropylpyrimidin-5-yl)methanol], the IC50 [1] is reported as 7.5 nM.

`CCC(C)c1nc2c(s1)CCCC2Nc1nc(C2CC2)nc(Cl)c1CO` (stereo not drawn) [Compound 116, (4-((2-(sec-butyl)-4,5,6,7-tetrahydrobenzo[d]thiazol-4-yl)amino)-6-chloro-2-cyclopropylpyrimidin-5-yl)methanol] gave an IC50 [1] of 3910 nM.

In the case of `Cc1nc(N2CC(c3nc4ccccc4n3C)C2)cc(N2CC(CC(C)C)CC2=O)n1` (stereo not drawn) [Compound 117, 4-isobutyl-1-(2-methyl-6-(3-(1-methyl-1H-benzo[d]imidazol-2-yl)azetidin-1-yl)pyrimidin-4-yl)pyrrolidin-2-one], the IC50 [1] is reported as 1140 nM.

`Cc1nc(N2CC(c3nc4ccccc4[nH]3)C2)cc(N2CC(CC(C)C)CC2=O)n1` (stereo not drawn) [Compound 118, 1-(6-(3-(1H-benzo[d]imidazol-2-yl)azetidin-1-yl)-2-methylpyrimidin-4-yl)-4-isobutylpyrrolidin-2-one] gave an IC50 [1] of 2870 nM.

`Cc1nc(N2CC(c3nc4ccccc4n3C)C2)cc(N2CC(c3ccccc3)CC2=O)n1` (stereo not drawn) [Compound 119, 1-(2-methyl-6-(3-(1-methyl-1H-benzo[d]imidazol-2-yl)azetidin-1-yl)pyrimidin-4-yl)-4-phenylpyrrolidin-2-one] showed an IC50 [1] of 3030 nM.

Molecule `Cc1nc(N2CC(c3nc4ccccc4n3C)C2)cc(N2CC3(CCCC3)CC2=O)n1` [Compound 120, 2-(2-methyl-6-(3-(1-methyl-1H-benzo[d]imidazol-2-yl)azetidin-1-yl)pyrimidin-4-yl)-2-azaspiro[4.4]nonan-3-one] has an IC50 [1] of 4130 nM.

With `COC(=O)c1cc(N2CC(c3nc4ccccc4n3C)C2)nc(C)n1` [Compound 121, methyl 2-methyl-6-(3-(1-methyl-1H-benzo[d]imidazol-2-yl)azetidin-1-yl)pyrimidine-4-carboxylate] the IC50 [1] was 2820 nM.

With `C=Cc1cc(N2CC(c3nc4ccccc4n3C)C2)nc(C)n1` [Compound 122, 1-methyl-2-(1-(2-methyl-6-vinylpyrimidin-4-yl)azetidin-3-yl)-1H-benzo[d]imidazole] the IC50 [1] was 3430 nM.

Work on `Cc1nc2c(s1)CCCC2Nc1nc(C2CC2)nc(Cl)c1C(F)F` (stereo not drawn) [Compound 123, N-(6-chloro-2-cyclopropyl-5-(difluoromethyl)pyrimidin-4-yl)-2-methyl-4,5,6,7-tetrahydrobenzo[d]thiazol-4-amine] yielded an IC50 [1] of 841 nM.

In the case of `Cc1nc2c(s1)CCCC2Nc1nc(C2CC2)nc(C)c1C#N` (stereo not drawn) [Compound 124, 2-cyclopropyl-4-methyl-6-((2-methyl-4,5,6,7-tetrahydrobenzo[d]thiazol-4-yl)amino)pyrimidine-5-carbonitrile], the IC50 [1] is reported as 422 nM.

Molecule `COc1ccc(N2CCC3(CCN(c4nc(C5CC5)ncc4CO)C3)C2)cc1` (stereo not drawn) [Compound 125, (2-cyclopropyl-4-(7-(4-methoxyphenyl)-2,7-diazaspiro[4.4]nonan-2-yl)pyrimidin-5-yl)methanol] has an IC50 [1] of 902 nM.

`Cc1nc2c(s1)C(Oc1nc(C3CC3)ncc1C#N)CCC2` (stereo not drawn) [Compound 126, 2-cyclopropyl-4-((2-methyl-4,5,6,7-tetrahydrobenzo[d]thiazol-7-yl)oxy)pyrimidine-5-carbonitrile] showed an IC50 [1] of 971 nM.

In the case of `CCCCCCCC(=O)N[C@H](CN1CCCC1)[C@H](O)c1ccc2c(c1)OCCO2` [eliglustat, Eliglustat], the “formation of pathological α-synuclein aggregates” value [2] is given as “reverse the formation of pathological α-synuclein aggregates”.
